In paper PMC11990670, “Exploring the Volatility, Phase Transitions, and Solubility Properties of Five Halogenated Benzaldehydes” (Molecules, 2025):
Values joined by “and” are separate entries in the source; they are usually repeats but may differ in a detail not shown here. Identical values can stand only once. Marks after values point to notes of the source that are not given here.

Tests used:
[1] = pH of the saturated aqueous solutions; type: physicochemical; details: saturated aqueous solution of the solubility experiment
Outline: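 Excess solid stirred in water in triplicate, settled 2 h; pH of the saturated solution measured, then filtered (0.22 μm), diluted and quantified by UV absorbance against calibration curves at 298.15 K. Residual solids examined by DSC and XRD for phase changes.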

[2] = Vapor pressures of crystalline and liquid phases, static method with capacitance diaphragm gauge; type: physicochemical
Outline: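 Static method with capacitance diaphragm gauge (range 0.5 to 1.3 × 10^3 Pa, gauge at 473 K) on degassed crystalline and liquid samples; sample temperature by calibrated Pt100, u(T/K) = ±0.01. Connecting tubing held between sample and gauge temperatures; U(p/Pa) = 0.1 + 0.0050 (p/Pa) at k = 2.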

Compound: O=Cc1ccc(Br)cc1 [4-Bromobenzaldehyde]
- pH of the saturated solution [1]: 6.82
- vapor pressure p ([2]; crystalline phase, T = 283.09 K): 0.83 Pa
- vapor pressure p ([2]; crystalline phase, T = 285.23 K): 1.07 Pa
- vapor pressure p ([2]; crystalline phase, T = 287.05 K): 1.33 Pa
- vapor pressure p ([2]; crystalline phase, T = 289.17 K): 1.71 Pa
- vapor pressure p ([2]; crystalline phase, T = 291.17 K): 2.13 Pa
- vapor pressure p ([2]; crystalline phase, T = 292.95 K): 2.63 Pa
- vapor pressure p ([2]; crystalline phase, T = 295.00 K): 3.25 Pa
- vapor pressure p ([2]; crystalline phase, T = 297.08 K): 4.12 Pa
- vapor pressure p ([2]; crystalline phase, T = 298.95 K): 4.98 Pa
- vapor pressure p ([2]; crystalline phase, T = 301.06 K): 6.27 Pa
- vapor pressure p ([2]; crystalline phase, T = 302.93 K): 7.60 Pa
- vapor pressure p ([2]; crystalline phase, T = 304.86 K): 9.21 Pa
- vapor pressure p ([2]; crystalline phase, T = 306.87 K): 11.43 Pa
- vapor pressure p ([2]; crystalline phase, T = 308.76 K): 13.82 Pa
- vapor pressure p ([2]; crystalline phase, T = 310.84 K): 17.02 Pa
- vapor pressure p ([2]; crystalline phase, T = 312.78 K): 20.28 Pa
- vapor pressure p ([2]; crystalline phase, T = 314.77 K): 24.88 Pa
- vapor pressure p ([2]; crystalline phase, T = 316.79 K): 29.92 Pa
- vapor pressure p ([2]; crystalline phase, T = 318.78 K): 36.33 Pa
- vapor pressure p ([2]; crystalline phase, T = 320.66 K): 43.34 Pa
- vapor pressure p ([2]; crystalline phase, T = 322.62 K): 51.66 Pa
- vapor pressure p ([2]; crystalline phase, T = 324.68 K): 61.49 Pa
- vapor pressure p ([2]; liquid phase, T = 330.60 K): 103.9 Pa
- vapor pressure p ([2]; liquid phase, T = 332.51 K): 117.8 Pa
- vapor pressure p ([2]; liquid phase, T = 334.45 K): 131.9 Pa
- vapor pressure p ([2]; liquid phase, T = 336.48 K): 148.9 Pa
- vapor pressure p ([2]; liquid phase, T = 338.43 K): 168.4 Pa
- vapor pressure p ([2]; liquid phase, T = 340.46 K): 189.9 Pa
- vapor pressure p ([2]; liquid phase, T = 342.44 K): 213.5 Pa
- vapor pressure p ([2]; liquid phase, T = 344.41 K): 240.4 Pa
- vapor pressure p ([2]; liquid phase, T = 346.34 K): 266.7 Pa
- vapor pressure p ([2]; liquid phase, T = 348.34 K): 300.1 Pa
- vapor pressure p ([2]; liquid phase, T = 350.32 K): 333.2 Pa
- vapor pressure p ([2]; liquid phase, T = 352.34 K): 375.3 Pa
- vapor pressure p ([2]; liquid phase, T = 354.27 K): 418.5 Pa
- vapor pressure p ([2]; liquid phase, T = 356.26 K): 463.6 Pa
- vapor pressure p ([2]; liquid phase, T = 358.21 K): 513.4 Pa
- vapor pressure p ([2]; liquid phase, T = 360.13 K): 573.1 Pa
- vapor pressure p ([2]; liquid phase, T = 362.14 K): 628.6 Pa
- vapor pressure p ([2]; liquid phase, T = 364.12 K): 701.8 Pa
- vapor pressure p ([2]; liquid phase, T = 366.10 K): 775.8 Pa
- vapor pressure p ([2]; liquid phase, T = 368.08 K): 860.4 Pa
- vapor pressure p ([2]; liquid phase, T = 370.05 K): 946.6 Pa
- vapor pressure p ([2]; liquid phase, T = 371.99 K): 1026 Pa
- vapor pressure p ([2]; liquid phase, T = 373.98 K): 1147 Pa
- vapor pressure p ([2]; supercooled liquid, T = 316.76 K): 39.76 ^d Pa
- vapor pressure p ([2]; supercooled liquid, T = 318.77 K): 46.26 ^d Pa
- vapor pressure p ([2]; supercooled liquid, T = 320.73 K): 53.22 ^d Pa
- vapor pressure p ([2]; supercooled liquid, T = 322.70 K): 60.73 ^d Pa
- vapor pressure p ([2]; supercooled liquid, T = 324.68 K): 69.79 ^d Pa
- vapor pressure p ([2]; supercooled liquid, T = 326.64 K): 79.36 ^d Pa
- vapor pressure p ([2]; supercooled liquid, T = 328.63 K): 90.64 ^d Pa

Compound: O=Cc1ccc(Cl)cc1 [4-Chlorobenzaldehyde]
- pH of the saturated solution [1]: 6.61
- vapor pressure p ([2]; crystalline phase, T = 267.45 K): 0.57 Pa
- vapor pressure p ([2]; crystalline phase, T = 269.33 K): 0.72 Pa
- vapor pressure p ([2]; crystalline phase, T = 271.42 K): 0.93 Pa
- vapor pressure p ([2]; crystalline phase, T = 273.29 K): 1.15 Pa
- vapor pressure p ([2]; crystalline phase, T = 275.39 K): 1.48 Pa
- vapor pressure p ([2]; crystalline phase, T = 277.25 K): 1.84 Pa
- vapor pressure p ([2]; crystalline phase, T = 279.32 K): 2.33 Pa
- vapor pressure p ([2]; crystalline phase, T = 281.20 K): 2.90 Pa
- vapor pressure p ([2]; crystalline phase, T = 283.26 K): 3.60 Pa
- vapor pressure p ([2]; crystalline phase, T = 285.16 K): 4.49 Pa
- vapor pressure p ([2]; crystalline phase, T = 287.22 K): 5.65 Pa
- vapor pressure p ([2]; crystalline phase, T = 289.23 K): 6.93 Pa
- vapor pressure p ([2]; crystalline phase, T = 291.18 K): 8.49 Pa
- vapor pressure p ([2]; crystalline phase, T = 293.07 K): 10.45 Pa
- vapor pressure p ([2]; crystalline phase, T = 295.14 K): 12.75 Pa
- vapor pressure p ([2]; crystalline phase, T = 297.14 K): 15.67 Pa
- vapor pressure p ([2]; crystalline phase, T = 299.12 K): 19.07 Pa
- vapor pressure p ([2]; crystalline phase, T = 300.99 K): 23.01 Pa
- vapor pressure p ([2]; crystalline phase, T = 303.05 K): 28.05 Pa
- vapor pressure p ([2]; crystalline phase, T = 305.04 K): 34.26 Pa
- vapor pressure p ([2]; crystalline phase, T = 306.98 K): 40.71 Pa
- vapor pressure p ([2]; crystalline phase, T = 309.01 K): 49.06 Pa
- vapor pressure p ([2]; crystalline phase, T = 310.96 K): 58.06 Pa
- vapor pressure p ([2]; crystalline phase, T = 312.92 K): 69.28 Pa
- vapor pressure p ([2]; crystalline phase, T = 314.91 K): 82.74 Pa
- vapor pressure p ([2]; liquid phase, T = 319.87 K): 125.4 Pa
- vapor pressure p ([2]; liquid phase, T = 321.85 K): 143.8 Pa
- vapor pressure p ([2]; liquid phase, T = 323.75 K): 162.2 Pa
- vapor pressure p ([2]; liquid phase, T = 325.71 K): 183.0 Pa
- vapor pressure p ([2]; liquid phase, T = 327.66 K): 206.8 Pa
- vapor pressure p ([2]; liquid phase, T = 329.70 K): 235.5 Pa
- vapor pressure p ([2]; liquid phase, T = 331.69 K): 264.4 Pa
- vapor pressure p ([2]; liquid phase, T = 333.66 K): 298.2 Pa
- vapor pressure p ([2]; liquid phase, T = 335.64 K): 336.0 Pa
- vapor pressure p ([2]; liquid phase, T = 337.61 K): 375.5 Pa
- vapor pressure p ([2]; liquid phase, T = 339.57 K): 415.3 Pa and 416.0 Pa
- vapor pressure p ([2]; liquid phase, T = 341.56 K): 468.0 Pa
- vapor pressure p ([2]; liquid phase, T = 343.52 K): 520.0 Pa
- vapor pressure p ([2]; liquid phase, T = 345.50 K): 578.0 Pa
- vapor pressure p ([2]; liquid phase, T = 347.47 K): 640.9 Pa
- vapor pressure p ([2]; liquid phase, T = 347.50 K): 641.0 Pa
- vapor pressure p ([2]; liquid phase, T = 349.45 K): 711.8 Pa
- vapor pressure p ([2]; liquid phase, T = 351.43 K): 788.7 Pa
- vapor pressure p ([2]; liquid phase, T = 353.30 K): 864.6 Pa
- vapor pressure p ([2]; liquid phase, T = 355.30 K): 958.0 Pa
- vapor pressure p ([2]; liquid phase, T = 357.33 K): 1058 Pa
- vapor pressure p ([2]; supercooled liquid, T = 305.70 K): 48.17 ^d Pa
- vapor pressure p ([2]; supercooled liquid, T = 307.91 K): 56.22 ^d Pa
- vapor pressure p ([2]; supercooled liquid, T = 309.86 K): 65.09 ^d Pa
- vapor pressure p ([2]; supercooled liquid, T = 311.92 K): 75.03 ^d Pa
- vapor pressure p ([2]; supercooled liquid, T = 313.90 K): 86.06 ^d Pa
- vapor pressure p ([2]; supercooled liquid, T = 315.83 K): 96.33 ^d Pa
- vapor pressure p ([2]; supercooled liquid, T = 317.92 K): 110.0 ^d Pa
